Assay [1] concerns the target T1, Caspase-3 (Homo sapiens, UniProt P42574).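 Note: Dose-response selectivity test against caspase-3 for candidate inhibitors of sentrin-specific proteases (SENPs).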
T1 sequence (P42574 whole entry): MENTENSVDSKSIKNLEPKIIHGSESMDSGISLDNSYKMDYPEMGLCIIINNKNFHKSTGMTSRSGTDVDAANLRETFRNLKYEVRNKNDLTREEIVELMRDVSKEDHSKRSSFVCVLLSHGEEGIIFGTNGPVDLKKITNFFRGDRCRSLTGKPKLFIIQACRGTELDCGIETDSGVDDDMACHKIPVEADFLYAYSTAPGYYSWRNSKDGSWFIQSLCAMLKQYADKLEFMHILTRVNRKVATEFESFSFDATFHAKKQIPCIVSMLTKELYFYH
It counts as functional.

Assay [2] deals with T2, Sentrin-specific protease 7 (Homo sapiens, UniProt Q9BQF6).
T2 sequence (Q9BQF6 whole entry): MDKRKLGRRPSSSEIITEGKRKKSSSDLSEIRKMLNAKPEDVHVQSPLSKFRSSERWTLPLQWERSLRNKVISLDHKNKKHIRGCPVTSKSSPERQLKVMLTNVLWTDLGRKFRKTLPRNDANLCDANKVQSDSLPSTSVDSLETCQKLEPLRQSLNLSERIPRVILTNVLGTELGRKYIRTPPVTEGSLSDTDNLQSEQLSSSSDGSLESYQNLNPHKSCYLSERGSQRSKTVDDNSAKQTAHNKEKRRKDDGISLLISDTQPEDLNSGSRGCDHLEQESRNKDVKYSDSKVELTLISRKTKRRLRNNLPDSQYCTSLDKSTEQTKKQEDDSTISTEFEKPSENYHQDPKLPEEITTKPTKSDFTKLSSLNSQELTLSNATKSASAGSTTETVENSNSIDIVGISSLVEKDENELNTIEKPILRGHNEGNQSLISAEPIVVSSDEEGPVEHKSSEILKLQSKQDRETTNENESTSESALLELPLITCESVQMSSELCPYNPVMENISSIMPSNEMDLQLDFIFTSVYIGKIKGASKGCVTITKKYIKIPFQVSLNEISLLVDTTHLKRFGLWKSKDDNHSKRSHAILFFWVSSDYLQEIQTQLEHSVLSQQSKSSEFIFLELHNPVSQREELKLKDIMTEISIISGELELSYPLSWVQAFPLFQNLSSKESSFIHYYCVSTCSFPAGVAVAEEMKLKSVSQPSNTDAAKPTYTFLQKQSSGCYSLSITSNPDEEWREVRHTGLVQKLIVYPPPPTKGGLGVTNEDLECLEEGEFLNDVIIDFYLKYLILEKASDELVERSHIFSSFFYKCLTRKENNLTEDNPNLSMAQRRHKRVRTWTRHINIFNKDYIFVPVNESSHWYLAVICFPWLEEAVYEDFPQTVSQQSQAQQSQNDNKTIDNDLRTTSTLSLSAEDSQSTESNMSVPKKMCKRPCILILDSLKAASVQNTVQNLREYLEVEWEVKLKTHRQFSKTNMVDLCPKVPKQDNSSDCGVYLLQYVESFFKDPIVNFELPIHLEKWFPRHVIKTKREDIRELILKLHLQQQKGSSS
It counts as functional.

The target of assay [3] is DNA (cytosine-5)-methyltransferase 1 (Homo sapiens, UniProt P26358). In words: DNMT1 methyltransferase inhibitors, confirmation, biochemical, fluorescent molecular beacon (AID 602386). The assay is classed as functional.
Sequence of DNA (cytosine-5)-methyltransferase 1 (P26358 whole entry): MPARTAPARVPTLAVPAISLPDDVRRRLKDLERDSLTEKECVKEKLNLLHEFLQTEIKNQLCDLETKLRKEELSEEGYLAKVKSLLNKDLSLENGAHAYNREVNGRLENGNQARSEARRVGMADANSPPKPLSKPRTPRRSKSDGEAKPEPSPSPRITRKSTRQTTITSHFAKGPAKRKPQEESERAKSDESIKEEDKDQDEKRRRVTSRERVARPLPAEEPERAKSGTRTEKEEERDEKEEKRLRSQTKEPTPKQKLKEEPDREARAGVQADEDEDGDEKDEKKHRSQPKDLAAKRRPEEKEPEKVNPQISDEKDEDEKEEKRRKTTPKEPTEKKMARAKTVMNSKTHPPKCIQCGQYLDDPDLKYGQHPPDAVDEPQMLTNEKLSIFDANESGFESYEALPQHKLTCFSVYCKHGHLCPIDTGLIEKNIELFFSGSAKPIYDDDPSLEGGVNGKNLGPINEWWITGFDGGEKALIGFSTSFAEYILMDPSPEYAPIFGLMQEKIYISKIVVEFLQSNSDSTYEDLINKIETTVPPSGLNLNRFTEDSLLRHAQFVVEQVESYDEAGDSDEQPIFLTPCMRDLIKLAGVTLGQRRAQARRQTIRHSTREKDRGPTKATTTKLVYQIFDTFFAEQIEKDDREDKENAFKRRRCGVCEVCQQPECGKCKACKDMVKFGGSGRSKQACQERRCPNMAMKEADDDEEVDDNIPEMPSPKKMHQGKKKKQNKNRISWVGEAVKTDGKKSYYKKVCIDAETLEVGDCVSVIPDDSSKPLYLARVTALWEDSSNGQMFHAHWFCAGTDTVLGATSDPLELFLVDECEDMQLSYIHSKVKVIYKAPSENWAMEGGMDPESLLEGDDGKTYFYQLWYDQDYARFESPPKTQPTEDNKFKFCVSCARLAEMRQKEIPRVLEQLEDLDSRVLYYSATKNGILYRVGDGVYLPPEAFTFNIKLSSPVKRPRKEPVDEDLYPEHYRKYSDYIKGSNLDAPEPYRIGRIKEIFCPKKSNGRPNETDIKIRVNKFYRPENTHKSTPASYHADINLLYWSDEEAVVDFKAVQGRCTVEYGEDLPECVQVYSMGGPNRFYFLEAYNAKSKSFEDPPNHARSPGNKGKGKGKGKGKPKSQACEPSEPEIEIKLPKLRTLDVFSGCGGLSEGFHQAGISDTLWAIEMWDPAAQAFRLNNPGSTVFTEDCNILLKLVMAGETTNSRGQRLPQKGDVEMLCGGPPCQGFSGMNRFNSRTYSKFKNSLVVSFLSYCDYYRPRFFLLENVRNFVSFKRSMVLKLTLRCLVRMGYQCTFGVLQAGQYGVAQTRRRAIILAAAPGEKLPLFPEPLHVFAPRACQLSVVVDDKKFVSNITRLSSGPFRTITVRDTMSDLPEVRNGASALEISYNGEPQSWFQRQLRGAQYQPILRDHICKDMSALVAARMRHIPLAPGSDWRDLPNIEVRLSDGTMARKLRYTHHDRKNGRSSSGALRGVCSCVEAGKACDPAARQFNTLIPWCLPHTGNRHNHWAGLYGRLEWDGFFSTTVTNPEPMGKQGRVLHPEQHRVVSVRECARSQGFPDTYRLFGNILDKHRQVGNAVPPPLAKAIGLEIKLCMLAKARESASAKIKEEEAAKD
Assay [4] addresses T3, Protein RecA (Mycobacterium tuberculosis, UniProt P9WHJ3).
T3 sequence (P9WHJ3 whole entry): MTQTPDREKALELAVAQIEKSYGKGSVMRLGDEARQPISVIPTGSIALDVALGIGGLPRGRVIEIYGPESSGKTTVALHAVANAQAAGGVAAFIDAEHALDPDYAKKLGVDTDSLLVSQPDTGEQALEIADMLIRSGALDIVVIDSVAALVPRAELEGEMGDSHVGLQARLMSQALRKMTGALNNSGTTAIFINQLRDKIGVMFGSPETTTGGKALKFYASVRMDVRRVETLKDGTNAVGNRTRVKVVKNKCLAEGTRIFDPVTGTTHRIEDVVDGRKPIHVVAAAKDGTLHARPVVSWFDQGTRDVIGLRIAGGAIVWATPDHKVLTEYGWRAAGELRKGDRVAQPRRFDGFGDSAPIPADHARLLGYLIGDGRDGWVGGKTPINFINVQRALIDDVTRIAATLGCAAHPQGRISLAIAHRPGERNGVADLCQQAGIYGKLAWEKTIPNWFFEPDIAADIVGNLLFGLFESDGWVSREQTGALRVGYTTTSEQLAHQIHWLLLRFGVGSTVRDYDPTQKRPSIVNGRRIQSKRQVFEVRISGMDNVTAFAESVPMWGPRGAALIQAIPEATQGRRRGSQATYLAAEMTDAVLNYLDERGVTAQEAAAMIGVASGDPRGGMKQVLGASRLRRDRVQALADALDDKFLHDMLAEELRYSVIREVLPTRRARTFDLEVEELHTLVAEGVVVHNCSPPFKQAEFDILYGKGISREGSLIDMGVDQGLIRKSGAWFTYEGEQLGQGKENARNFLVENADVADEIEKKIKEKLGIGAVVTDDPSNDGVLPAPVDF
In words: Fluorescence Cell-Free Homogeneous Dose Retest to Identify Inhibitors of RecA-Intein Splicing Activity. [Related pubchem assays (depositor defined):AID2097, AID2223, AID489010, AID492950]. The assay is classed as functional.

The nature of assay [5]: A375 melanoma cell cytotoxicity, dose response, counter-screen for MITF inhibitor project, CellTiter-Glo luminescence, dry powder, set 2 (AID 624489).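 Note: actives are compounds lowering A375 viability meaning general cytotoxicity.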 It counts as functional, cell-based. The settings on record: A-375. In general terms: The purpose of a counterscreen is to sort out artefacts and off-target activity.

Calls of active or inactive are those of the source. Cut-off read from the data, not from the text of the source, for most assays here: actives have a measured IC50 and inactives only a lower limit.

For the molecule `Oc1[nH]c2ccccc2c1N=Nc1ccc(F)cc1`, the IC50 was 7.58 µM (active) in assay [1], 1.51 µM (active) in assay [2] and 19.3 µM (active) in assay [3].

With `O=C1C(Nc2ccccc2)=C(N2CCCCC2)C(=O)c2ccccc21`, in assay [4], the EC50 is 2.21 µM (active). The AC50 in assay [5] is 24.9 µM (active).

A word on the IC50: it is the concentration that gives 50% inhibition. As a reminder, the EC50 is the concentration that produces a half-maximal response. For orientation: AC50 means the midpoint of the concentration-response curve, whichever way the signal moves.

Source of the values: ChEMBL document CHEMBL1201862, “PubChem BioAssay data set” (2004).
